Here are results for three molecules from ChEMBL document CHEMBL3616371, “Synthesis of BF₃ catalyzed Mannich derivatives with excellent ee from phenylpropanolamine, study of their antimicrobial activity and molecular docking” (2015).

Where only a bound is given, the exact number is not on record here.

For test [1], the system named is Pseudomonas aeruginosa. As to the kind of experiment: Antibacterial activity against Pseudomonas aeruginosa after 24 hrs by two fold serial dilution method. The class given is functional.
Test [2] deals with Micrococcus luteus. The test is described as follows: Antibacterial activity against Micrococcus luteus after 24 hrs by two fold serial dilution method. The class given is functional.
Test [3] relates to Staphylococcus epidermidis. The test is described as follows: Antibacterial activity against Staphylococcus epidermidis after 24 hrs by two fold serial dilution method. The class given is functional.
The test system of test [4] is Proteus vulgaris. The test is described as follows: Antibacterial activity against Proteus vulgaris assessed as growth inhibition at 1 mg/well after 24 hrs by Well method. The class given is functional.
Test [5] relates to Klebsiella aerogenes. As to the kind of experiment: Antibacterial activity against Enterobacter aerogenes after 24 hrs by two fold serial dilution method. The class given is functional.
Test [6] deals with Staphylococcus aureus. As to the kind of experiment: Antibacterial activity against methicillin-resistant Staphylococcus aureus after 24 hrs by two fold serial dilution method. The class given is functional.
For test [7], the system named is Klebsiella pneumoniae. As to the kind of experiment: Antibacterial activity against Klebsiella pneumoniae after 24 hrs by two fold serial dilution method. The class given is functional.
For test [8], the system named is Bacillus subtilis. As to the kind of experiment: Antibacterial activity against Bacillus subtilis assessed as growth inhibition at 1 mg/well after 24 hrs by Well method. The class given is functional.
The test system of test [9] is Staphylococcus aureus. The test is described as follows: Antibacterial activity against Staphylococcus aureus after 24 hrs by two fold serial dilution method. The class given is functional.
The test system of test [10] is Salmonella typhimurium. As to the kind of experiment: Antibacterial activity against Salmonella typhimurium after 24 hrs by two fold serial dilution method. The class given is functional, Salmonella enterica subsp. enterica serovar Typhimurium. Conditions: Salmonella enterica.
Test [11] deals with Candida albicans. As to the kind of experiment: Antifungal activity against Candida albicans assessed as growth inhibition at 1 mg/well after 48 hrs by Well method. The class given is functional.
Test [12] relates to Staphylococcus aureus. The test is described as follows: Antibacterial activity against methicillin-resistant Staphylococcus aureus assessed as growth inhibition at 1 mg/well after 24 hrs by Well method. The class given is functional.
The test system of test [13] is Aspergillus flavus. The test is described as follows: Antifungal activity against Aspergillus flavus after 48 to 72 hrs by two fold serial dilution method. The class given is functional.
In test [14] the test system is Micrococcus luteus. As to the kind of experiment: Antibacterial activity against Micrococcus luteus assessed as growth inhibition at 1 mg/well after 24 hrs by Well method. The class given is functional.
Test [15] concerns Bacillus subtilis. As to the kind of experiment: Antibacterial activity against Bacillus subtilis after 24 hrs by two fold serial dilution method. The class given is functional.
Test [16] deals with Pseudomonas aeruginosa. As to the kind of experiment: Antibacterial activity against Pseudomonas aeruginosa assessed as growth inhibition at 1 mg/well after 24 hrs by Well method. The class given is functional.
Test [17] deals with Salmonella typhimurium. As to the kind of experiment: Antibacterial activity against Salmonella typhimurium assessed as growth inhibition at 1 mg/well after 24 hrs by Well method. The class given is functional, Salmonella enterica subsp. enterica serovar Typhimurium.
In test [18] the test system is Staphylococcus epidermidis. The test is described as follows: Antibacterial activity against Staphylococcus epidermidis assessed as growth inhibition at 1 mg/well after 24 hrs by Well method. The class given is functional.
Test [19] concerns Klebsiella aerogenes. As to the kind of experiment: Antibacterial activity against Enterobacter aerogenes assessed as growth inhibition at 1 mg/well after 24 hrs by Well method. The class given is functional.
For test [20], the system named is Shigella flexneri. As to the kind of experiment: Antibacterial activity against Shigella flexneri after 24 hrs by two fold serial dilution method. The class given is functional.
The subject of test [21] is Staphylococcus aureus. The test is described as follows: Antibacterial activity against Staphylococcus aureus assessed as growth inhibition at 1 mg/well after 24 hrs by Well method. The class given is functional.
In test [22] the test system is Shigella flexneri. As to the kind of experiment: Antibacterial activity against Shigella flexneri assessed as growth inhibition at 1 mg/well after 24 hrs by Well method. The class given is functional.
Test [23] concerns Proteus vulgaris. As to the kind of experiment: Antibacterial activity against Proteus vulgaris after 24 hrs by two fold serial dilution method. The class given is functional.
Test [24] concerns Klebsiella pneumoniae. The test is described as follows: Antibacterial activity against Klebsiella pneumoniae assessed as growth inhibition at 1 mg/well after 24 hrs by Well method. The class given is functional.
The test system of test [25] is Malassezia pachydermatis. The test is described as follows: Antifungal activity against Malassezia pachydermatis assessed as growth inhibition at 1 mg/well after 48 hrs by Well method. The class given is functional.
The test system of test [26] is Malassezia pachydermatis. The test is described as follows: Antifungal activity against Malassezia pachydermatis after 48 to 72 hrs by two fold serial dilution method. The class given is functional.

With `C[C@H](NCCC(=O)c1ccc(Cl)cc1Cl)[C@H](O)c1ccccc1.Cl`, the MIC in [1] is 25 µg/mL; in test [2] it was 25 µg/mL; in test [3], 25 µg/mL; in [5], 25 µg/mL; in test [6] it was 25 µg/mL; in [7], more than 50 µg/mL. Further, the MIC in test [9], in [10], in test [13], in test [15], in test [20] and in test [23] was 25 µg/mL throughout. Besides, the “inhibition zone (IZ)” value in [4] is on record as 32 mm; in [8] it was 30 mm; in test [11], 22 mm; in [12], 31 mm; in [14], 35 mm; in test [16], 29 mm. Further, the “inhibition zone (IZ)” value in [17] came out at 30 mm; in test [18] it was 35 mm; in test [19], 34 mm; in [21], 36 mm; in test [22], 31 mm.

Consider `C[C@H](NCCC(=O)c1cccc(O)c1)[C@H](O)c1ccccc1.Cl`, for which the MIC in test [1] was 12.5 µg/mL; in test [2], 3.13 µg/mL; in [3], 6.25 µg/mL; in test [5] it was 25 µg/mL; in [6], 25 µg/mL; in test [7], 25 µg/mL. The minimal inhibitory concentration (MIC) was determined as 25 µg/mL in [9]; 25 µg/mL in test [10]; 12.5 µg/mL in test [15]; 25 µg/mL in test [20]; 25 µg/mL in test [23]. Also, the “inhibition zone (IZ)” value in [24] was determined as 24 mm; in test [4], 24 mm; in test [8] it was 23 mm; in test [12], 23 mm; in test [14] it was 35 mm; in [16] it was 22 mm. Also, the “inhibition zone (IZ)” value is listed as 22 mm in [17]; 28 mm in [18]; 22 mm in test [19]; 24 mm in test [21]; 22 mm in [22].

On to `C[C@@H](NCCC(=O)c1cccc(O)c1)[C@@H](O)c1ccccc1.Cl`, for which the MIC in [1] amounted to 25 µg/mL; in test [2], 3.13 µg/mL; in test [3] it was 25 µg/mL; in test [5], 25 µg/mL; in test [6], 25 µg/mL; in [7], 50 µg/mL. Moreover, the MIC was 50 µg/mL in [9]; 50 µg/mL in test [10]; more than 50 µg/mL in test [26]; 25 µg/mL in test [15]; 25 µg/mL in test [20]; 25 µg/mL in test [23]. Also, the “inhibition zone (IZ)” value in test [24] worked out at 20 mm; in test [4], 22 mm; in test [8], 20 mm; in [25], 14 mm; in [12], 22 mm; in test [14], 34 mm. The “inhibition zone (IZ)” value in test [16] is given as 20 mm; in test [17] it was 20 mm; in test [18] it was 24 mm; in test [19], 21 mm; in test [21], 20 mm; in test [22], 21 mm.
